By IC50 is commonly meant the point on the concentration scale where inhibition reaches its midpoint.

These results are taken from patent US20190127359A1, “Compounds & Methods for the Enhanced Degradation of Targeted Proteins & Other Polypeptides by an E3 Ubiquitin Ligase” (YALE UNIVERSITY, priority 2012, published 2019).

Like-named read-outs stand apart in the source and are kept apart here.

The target in the test is VHL (Homo sapiens, UniProt P40337). The experiment in a line: Fluorescence polarization competition assay (HIF-1α peptide FP displacement). On the technique in general: Polarisation of emitted light reports the rotation of a fluorescent probe.

Take `COCc1cn(CC(=O)N2C[C@H](O)C[C@H]2C(=O)NCc2ccc(Cl)cc2)nn1` [VL141]: the IC50 is, setting by setting: (IC50 (μM) 1% DMSO, 1% DMSO) 220 µM; (IC50 (μM) 10% DMSO, 10% DMSO) 192 µM.

For `O=C(NCc1ccc(Cl)cc1)[C@@H]1C[C@@H](O)CN1C(=O)c1ccc2[nH]ncc2c1` [VL126], the IC50 is, setting by setting: (IC50 (μM) 1% DMSO, 1% DMSO) 82 µM; (IC50 (μM) 10% DMSO, 10% DMSO) 88.1 µM.

`Cc1cc(CC(=O)N2C[C@H](O)C[C@H]2C(=O)NCCc2ccc(O)cc2)on1` [VL002, (2S,4R)-4-hydroxy-N-(4-hydroxyphenethyl)-1-(2-(3-methylisoxazol-5-yl)acetyl)pyrrolidine-2-carboxamide]: the IC50 (IC50 (μM) 10% DMSO, 10% DMSO) is 241 µM and the IC50 (read-out: IC50 (μM) 1% DMSO, 1% DMSO) amounted to 120 µM.

Regarding `Cc1cc(CC(=O)N2C[C@H](O)C[C@H]2C(=O)NCc2ccc(C(=O)CC(C)C)cc2)on1` [VL090], the IC50 (IC50 (μM) 10% DMSO, 10% DMSO) stood at 45.2 µM.

The compound `Cc1cc(CC(=O)N2C[C@H](O)C[C@H]2C(=O)NCc2cccc3cccnc23)on1` [VL094] returned an IC50 (IC50 (μM) 10% DMSO, 10% DMSO) of 540 µM.

For the compound `Cc1c(C(=O)N2C[C@H](O)C[C@H]2C(=O)NCc2ccc(Cl)cc2)cccc1[N+](=O)[O-]` [VL066], the IC50 (IC50 (μM) 10% DMSO, 10% DMSO) was determined as 72.4 µM.

In the case of `CC(C)[Si](c1cn(CC(=O)N2C[C@H](O)C[C@H]2C(=O)NCc2ccc(-c3ccccc3)cc2)nn1)(C(C)C)C(C)C` [VL135], the “IC50 (μM) 10% DMSO” value (10% DMSO) was “Inactive”. Also, where the note is “IC50 (μM) 1% DMSO, 1% DMSO”, the IC50 is greater than 1000 µM.

For `Cc1nc(S)sc1CC(=O)N1C[C@H](O)C[C@H]1C(=O)NCc1ccc(Cl)cc1` [VL106], for the setting “IC50 (μM) 10% DMSO, 10% DMSO”, the IC50 was greater than 1000 µM.

The compound `N#Cc1cccc(C(=O)N2C[C@H](O)C[C@H]2C(=O)NCc2ccc(Cl)cc2)c1` [VL077] displayed an IC50 (IC50 (μM) 10% DMSO, 10% DMSO) of 8.9 µM.

`Nc1ccc(C(=O)N2C[C@H](O)C[C@H]2C(=O)NCc2ccc(Cl)cc2)cc1` [VL072] came in with an IC50 (IC50 (μM) 10% DMSO, 10% DMSO) of 29.5 µM.

`COc1ccc(CNC(=O)[C@@H]2C[C@@H](O)CN2C(=O)Cc2cc(C)no2)cc1OC` [VL025]: the IC50 (IC50 (μM) 10% DMSO, 10% DMSO) amounted to 517 µM.

Take `O=C(NCc1ccc(Cl)cc1)[C@@H]1C[C@@H](O)CN1C(=O)c1ccc(Cl)cc1` [VL074]: where the note is “IC50 (μM) 10% DMSO, 10% DMSO”, the half-inhibitory concentration (IC50) was found to be 42.9 µM.

For the setting “IC50 (μM) 10% DMSO, 10% DMSO”, `Cc1cc(CC(=O)N2C[C@H](O)C[C@H]2C(=O)NCc2ccccc2Cl)on1` [VL028] returned an IC50 of 210 µM.

Consider `CC(=O)O[C@@H]1C[C@@H](C(=O)NCc2ccc(-c3cnco3)cc2)N(C(=O)Cc2cc(C)no2)C1` [VL114], for which the “IC50 (μM) 1% DMSO” value (1% DMSO) is recorded as “Inactive”. Moreover, under “10% DMSO”, the “IC50 (μM) 10% DMSO” value is given as “Inactive”.

In the case of `Cc1cc(CC(=O)N2C[C@H](O)C[C@H]2C(=O)NCc2cccc(Cl)c2)on1` [Compound 1], the IC50 (Table 1A, binding of initial ligands to VHL, average of three independent trials, each in triplicate) was determined as 117 µM. Also, the “displacement of the fluorescent HIF-1α peptide” value (fluorescence polarization, result in words) is reported as “able to displace the fluorescent peptide albeit at high concentrations”.

As to `Nc1ccccc1C(=O)N1C[C@H](O)C[C@H]1C(=O)NCc1ccc(Cl)cc1` [VL070], the IC50 (IC50 (μM) 10% DMSO, 10% DMSO) turned out to be 38.2 µM.

With `Cc1cc(CC(=O)N2C[C@H](O)C[C@H]2C(=O)NCc2c[nH]c3ccccc23)on1` [VL109], under “IC50 (μM) 10% DMSO, 10% DMSO”, the IC50 came to 349 µM.

Take `Cc1cc(CC(=O)N2C[C@H](O)C[C@H]2C(=O)N(C)Cc2ccc(Cl)cc2)on1` [VL147]: the IC50 is greater than 1000 µM (IC50 (μM) 1% DMSO, 1% DMSO) and greater than 1000 µM (IC50 (μM) 10% DMSO, 10% DMSO).

Turning to `O=C(NCc1cccc(Cl)c1)[C@@H]1C[C@@H](O)CN1C(=O)Cc1nnn[nH]1` [VL012], the IC50 (IC50 (μM) 10% DMSO, 10% DMSO) is greater than 1000 µM.

In the case of `Cc1cc(CC(=O)N2C[C@H](O)C[C@H]2C(=O)NCc2cccc3ccccc23)on1` [VL086], the IC50 (IC50 (μM) 10% DMSO, 10% DMSO) was determined as 168 µM.

`O=C(NCc1cccc(Cl)c1)[C@@H]1C[C@@H](O)CN1S(=O)(=O)c1cccc([N+](=O)[O-])c1` [VL013] displayed an IC50 (IC50 (μM) 10% DMSO, 10% DMSO) of 240 µM.

In the case of `O=C(NCc1ccc(-c2ccccc2)cc1)[C@@H]1C[C@@H](O)CN1Cc1ccccc1Cl` [VL143], the IC50 was greater than 1000 µM (IC50 (μM) 1% DMSO, 1% DMSO) and greater than 1000 µM (IC50 (μM) 10% DMSO, 10% DMSO).

In the case of `Cc1cc(CC(=O)N2C[C@H](O)C[C@H]2C(=O)NCc2ccc(-c3ccccc3)cc2)on1` [VL014], the IC50 (IC50 (μM) 10% DMSO, 10% DMSO) was determined as 4.7 µM.

Compound `Cc1ccc(S(=O)(=O)N2C[C@H](O)C[C@H]2C(=O)NCc2cccc(Cl)c2)cc1` [VL008] gave an IC50 (IC50 (μM) 10% DMSO, 10% DMSO) greater than 1000 µM.

Take `Cc1cc(CC(=O)N2C[C@H](O)C[C@H]2C(=O)NCc2cccc(-c3cccn3C)c2)on1` [VL118]: the IC50 (IC50 (μM) 1% DMSO, 1% DMSO) was found to be 31 µM and the concentration for half-maximal inhibition (IC50) (IC50 (μM) 10% DMSO, 10% DMSO) is 16.4 µM.

Consider `Cc1cc(CC(=O)N2C[C@H](O)C[C@H]2C(=O)NCc2ccc(C#N)cc2)on1` [VL088], for which the IC50 (IC50 (μM) 10% DMSO, 10% DMSO) was 18.2 µM.

Compound `COC(=O)Cc1cn(CC(=O)N2C[C@H](O)C[C@H]2C(=O)NCc2ccc(-c3ccccc3)cc2)nn1` [VL136] yielded an IC50 (IC50 (μM) 1% DMSO, 1% DMSO) of 540 µM and a 50% inhibitory concentration (IC50) (IC50 (μM) 10% DMSO, 10% DMSO) of 28.2 µM.

The compound `O=C(NCCc1ccc(O)cc1)[C@@H]1C[C@@H](O)CN1C(=O)Cc1nnn[nH]1` [VL005] gave an IC50 (IC50 (μM) 10% DMSO, 10% DMSO) greater than 1000 µM.

`Cc1cc(CC(=O)N2C[C@H](O)C[C@H]2C(=O)NCc2ccc(-c3ncco3)cc2)on1` [VL112] had an IC50 (IC50 (μM) 10% DMSO, 10% DMSO) of 11.3 µM.

Turning to `O=C(NCc1ccc(Cl)cc1)[C@@H]1C[C@@H](O)CN1S(=O)(=O)c1cccc2cccnc12` [VL130], the IC50 (IC50 (μM) 1% DMSO, 1% DMSO) was greater than 1000 µM and the IC50 (IC50 (μM) 10% DMSO, 10% DMSO) is greater than 1000 µM.

On to `Cc1cc(CC(=O)N2C[C@H](O)C[C@H]2C(=O)NCc2ccc(Cl)cc2)on1` [VL021], for which the IC50 (IC50 (μM) 10% DMSO, 10% DMSO) came to 36 µM.

For the compound `O=C(NCc1ccc(Cl)cc1)[C@@H]1C[C@@H](O)CN1C(=O)c1cccc(-c2cnco2)c1` [VL122], the IC50 stood at 220 µM (IC50 (μM) 1% DMSO, 1% DMSO) and 102 µM (IC50 (μM) 10% DMSO, 10% DMSO).

For the compound `Cc1cc(CC(=O)N2C[C@H](O)C[C@H]2C(=O)NCc2ccc(C(=O)OCC3CC3)cc2)on1` [VL091], the IC50 (IC50 (μM) 10% DMSO, 10% DMSO) stood at 23 µM.

Consider `N#Cc1ccc(CC(=O)N2C[C@H](O)C[C@H]2C(=O)NCc2ccc(Cl)cc2)s1` [VL068], for which the IC50 (IC50 (μM) 10% DMSO, 10% DMSO) was greater than 1000 µM.

With `O=C(NCc1ccc(Cl)cc1)[C@@H]1C[C@@H](O)CN1C(=O)c1ccc([N+](=O)[O-])c(O)c1` [VL084], the IC50 (IC50 (μM) 10% DMSO, 10% DMSO) amounted to 460 µM.

Compound `O=C(NCc1ccc(Cl)cc1)[C@@H]1C[C@@H](O)CN1C(=O)CN1C(=O)CSC1=S` [VL108] displayed an IC50 (IC50 (μM) 10% DMSO, 10% DMSO) of 347 µM.

For `Cc1cc(CC(=O)N2C[C@H](O)C[C@H]2C(=O)OCc2ccc(-c3ccccc3)cc2)on1` [VL142], the IC50 reads like this: (IC50 (μM) 1% DMSO, 1% DMSO) greater than 1000 µM; (IC50 (μM) 10% DMSO, 10% DMSO) 780 µM.

Compound `Cc1cc(CC(=O)N2C[C@H](O)C[C@H]2C(=O)NCc2ccc(Cl)c(Cl)c2)on1` [VL030] yielded an IC50 (IC50 (μM) 10% DMSO, 10% DMSO) of 215 µM.

Under “IC50 (μM) 10% DMSO, 10% DMSO”, `COc1cc(/C=C/C(=O)N2C[C@H](O)C[C@H]2C(=O)NCc2ccc(Cl)cc2)cc(OC)c1O` [VL057] gave an IC50 greater than 1000 µM.

In turn, `CON(C)C(=O)c1ccc(CNC(=O)[C@@H]2C[C@@H](O)CN2C(=O)Cc2cc(C)no2)cc1` [VL093] came in with an IC50 (IC50 (μM) 10% DMSO, 10% DMSO) of 510 µM.

In the case of `O=C(NCc1ccc(Cl)cc1)[C@@H]1C[C@@H](O)CN1C(=O)c1cccc(Br)c1` [VL076], the IC50 (IC50 (μM) 10% DMSO, 10% DMSO) is 19.6 µM.

Turning to `Cc1cc(CCN2C[C@H](O)C[C@H]2C(=O)NCc2ccc(-c3ccccc3)cc2)on1` [VL145], the IC50 is greater than 1000 µM (IC50 (μM) 1% DMSO, 1% DMSO) and greater than 1000 µM (IC50 (μM) 10% DMSO, 10% DMSO).

For `NS(=O)(=O)c1ccc(C(=O)N2C[C@H](O)C[C@H]2C(=O)NCc2ccc(Cl)cc2)cc1` [VL082], the IC50 (IC50 (μM) 10% DMSO, 10% DMSO) came to 29 µM.

Consider `Cc1cc(CC(=O)N2C[C@H](O)C[C@H]2C(=O)NCc2ccc(-c3ccc(F)nc3)cc2)on1` [VL151], for which the IC50 by setting is: (IC50 (μM) 1% DMSO, 1% DMSO) 33 µM; (IC50 (μM) 10% DMSO, 10% DMSO) 11 µM.

For the setting “IC50 (μM) 10% DMSO, 10% DMSO”, `Cc1cc(CC(=O)N2C[C@H](O)C[C@H]2C(=O)N[C@H](C)c2ccccc2)on1` [VL033] registered an IC50 greater than 1000 µM.

`O=C(NCc1ccc(Cl)cc1)[C@@H]1C[C@@H](O)CN1C(=O)c1cc(-c2ccccc2)on1` [VL060] gave an IC50 (IC50 (μM) 10% DMSO, 10% DMSO) greater than 1000 µM.

Regarding `Cc1cc(CC(=O)N2C[C@H](O)C[C@H]2C(=O)NCc2ccc(-c3c(C)noc3C)cc2)on1` [VL138], the IC50 is, setting by setting: (IC50 (μM) 1% DMSO, 1% DMSO) 70 µM; (IC50 (μM) 10% DMSO, 10% DMSO) 52.2 µM.
